Laboratory results as given in US20260109732A1, “LIPID AMINES” (ModernaTX, Inc., priority 2021, published 2026).
Structures can show the parent of a compound that is named as a salt.

Assays:
HeLa cells [1] = assay: CFTR Protein Expression Assay in HeLa Cells; assay type: cell-based, Human; conditions: LNPs encapsulating CFTR mRNA, N=4 wells; 5 h serum-free then 24 h; immunofluorescence vs PBS control
How it was run: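 HeLa cells dosed with CFTR mRNA LNPs (70 mM NaCl final buffer matrix) in serum-free MEM for 5 h, then complete MEM for 24 h. Fixed cells immunostained with anti-CFTR monoclonal and Alexa 488 secondary, imaged confocally; CFTR intensity per cell expressed as fold-change versus PBS buffer control, N=4 wells.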

[2] = Diameter and PDI from DLS measurements of mRNA nanoparticles with lipid amines; assay type: physicochemical
How it was run: (§1)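 Ionizable lipid nanoparticles (IL1:DSPC:cholesterol:PEG-DMG-2K) formed by vortex mixing at pH 4, loaded with luciferase or CFTR mRNA at N:P 4.93, neutralized with TRIS pH 8.12, then modified with lipid amine SA50 at pH 7.5. Particle diameter and PDI read by DLS; mRNA encapsulation by Ribogreen assay.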

HeLa cells [3] = assay: Luciferase Protein Expression Assay in HeLa Cells; assay type: cell-based, Human; conditions: LNPs encapsulating Luciferase mRNA, 25 ng per well, N=4 wells; 5 h serum-free then 24 h; ONE-Glo
How it was run: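 HeLa cells received LNPs carrying luciferase mRNA (25 ng per well) or PBS in serum-free MEM for 5 h, then complete MEM for a further 24 h. Luciferase then read by ONE-Glo luminescence after lysis and reported as average RLU of 4 replicate wells.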

[4] = Encapsulation of mRNA nanoparticles with lipid amines using Ribogreen assay; assay type: physicochemical
How it was run: as §1

[5] = CFTR mRNA nanoparticle with lipid amine
[6] = Luciferase mRNA nanoparticle modified with lipid amine

| Compound | Average fold-change in CFTR signal intensity per cell compared to buffer control ± standard deviation (HeLa cells [1]) [fold-change] | Diameter (nm) [2, 5] [nm] | PDI [2, 5] | Diameter (nm) [2, 6] [nm] | PDI [2, 6] | Average Relative Light Units ± Standard Deviation (HeLa cells [3]) [Relative Light Units] | % Encapsulation (Ribogreen) [4, 5] [%] | % Encapsulation (Ribogreen) [4, 6] [%] |
| --- | --- | --- | --- | --- | --- | --- | --- | --- |
| CC(C)CCC[C@@H](C)[C@H]1CC[C@H]2[C@@H]3CC=C4C[C@@H](SSCCC(=O)N(CCCCCCCC(C)N)CCC(C)N)CC[C@]4(C)[C@H]3CC[C@]12C (stereo partly drawn) [SA172, N-(3-aminobutyl)-N-(8-aminononyl)-3-(((3S,8S,9S,10R,13R,14S,17R)-10,13-dimethyl-17-((R)-6-methylheptan-2-yl)-2,3,4,7,8,9,10,11,12,13,14,15,16,17-tetradecahydro-1H-cyclopenta[a]phenanthren-3-yl)disulfaneyl)propanamide dihydrochloride] | 17.8 ± 1.1 | 70.3 | 0.13 | 74 | 0.10 | 27528.4 ± 6654.4 | 98.3 | 99.4 |
| CC(C)CCC[C@@H](C)[C@H]1CC[C@H]2[C@@H]3CC=C4C[C@@H](OC(=O)N(CCCCNCCC5(N)CC5)CCC5(N)CC5)CC[C@]4(C)[C@H]3CC[C@]12C [SA124, (3S,8S,9S,10R,13R,14S,17R)-10,13-dimethyl-17-((R)-6-methylheptan-2-yl)-2,3,4,7,8,9,10,11,12,13,14,15,16,17-tetradecahydro-1H-cyclopenta[a]phenanthren-3-yl (2-(1-aminocyclopropyl)ethyl)(4-((2-(1-aminocyclopropyl)ethyl)amino)butyl)carbamate trihydrochloride] | 15.0 ± 1.2 | 72.0 | 0.10 | 74 | 0.14 | 45805.9 ± 5630.6 | 98.3 | 99.8 |
| CC(C)CCC[C@@H](C)[C@H]1CC[C@H]2[C@@H]3CC=C4C[C@@H](OC(=O)N(CCCCCCN)CCCCCCN)CC[C@]4(C)[C@H]3CC[C@]12C [SA81, (3S,8S,9S,10R,13R,14S,17R)-10,13-Dimethyl-17-((R)-6-methylheptan-2-yl)-2,3,4,7,8,9,10,11,12,13,14,15,16,17-tetradecahydro-1H-cyclopenta[a]phenanthren-3-yl bis(6-aminohexyl)carbamate dihydrochloride] | 4.4 ± 0.3 | 87.6 | 0.18 | 72 | 0.12 | 19619.8 ± 4362.6 | 99.4 | 99.8 |
| CC[C@H](CC[C@@H](C)[C@H]1CC[C@H]2[C@@H]3CC=C4C[C@@H](OC(=O)[C@H](C)N(CCCN)CCCCNCCCN)CC[C@]4(C)[C@H]3CC[C@]12C)C(C)C [SA118, (3S,8S,9S,10R,13R,14S,17R)-17-((2R,5R)-5-ethyl-6-methylheptan-2-yl)-10,13-dimethyl-2,3,4,7,8,9,10,11,12,13,14,15,16,17-tetradecahydro-1H-cyclopenta[a]phenanthren-3-yl N-(3-aminopropyl)-N-(4-((3-aminopropyl)amino)butyl)alaninate tetrahydrochloride] | 9.7 ± 1.2 | 89.9 | 0.16 | 74 | 0.19 | 12261.7 ± 4328.5 | 97.9 | 99.7 |
| CC[C@H](CC[C@@H](C)[C@H]1CC[C@H]2[C@@H]3CC=C4C[C@@H](OC(=O)N(CCCN)CCCCN)CC[C@]4(C)[C@H]3CC[C@]12C)C(C)C [SA120, (3S,8S,9S,10R,13R,14S,17R)-17-((2R,5R)-5-Ethyl-6-methylheptan-2-yl)-10,13-dimethyl-2,3,4,7,8,9,10,11,12,13,14,15,16,17-tetradecahydro-1H-cyclopenta[a]phenanthren-3-yl (4-aminobutyl)(3-aminopropyl)carbamate dihydrochloride] | 16.8 ± 1.1 | 83.6 | 0.14 | 76 | 0.28 | 34695.5 ± 9492.2 | 97.5 | 99.1 |
| CC(C)CCC[C@@H](C)[C@H]1CC[C@H]2[C@@H]3CC=C4C[C@@H](OC(=O)CCCC(=O)N(CCCCCCCC(C)N)CCC(C)N)CC[C@]4(C)[C@H]3CC[C@]12C (stereo partly drawn) [SA142, (3S,8S,9S,10R,13R,14S,17R)-10,13-dimethyl-17-((R)-6-methylheptan-2-yl)-2,3,4,7,8,9,10,11,12,13,14,15,16,17-tetradecahydro-1H-cyclopenta[a]phenanthren-3-yl 5-((3-aminobutyl)(8-aminononyl)amino)-5-oxopentanoate dihydrochloride] | 20.0 ± 1.0 | 69.5 | 0.14 | 72 | 0.19 | 44925.4 ± 6006.5 | 99.0 | 99.5 |
| CC[C@H](CC[C@@H](C)[C@H]1CC[C@H]2[C@@H]3CC=C4C[C@@H](OC(=O)CCC(=O)N(CCC(C)(C)N)CCC(C)(C)N)CC[C@]4(C)[C@H]3CC[C@]12C)C(C)C [SA170, (3S,8S,9S,10R,13R,14S,17R)-17-((2R,5R)-5-ethyl-6-methylheptan-2-yl)-10,13-dimethyl-2,3,4,7,8,9,10,11,12,13,14,15,16,17-tetradecahydro-1H-cyclopenta[a]phenanthren-3-yl 4-(bis(3-amino-3-methylbutyl)amino)-4-oxobutanoate dihydrochloride] | 19.0 ± 1.7 | 74.8 | 0.15 | 75 | 0.21 | 23687.3 ± 3865 | 99.2 | 99.6 |
| CC(C)CCC[C@@H](C)[C@H]1CC[C@H]2[C@@H]3CC=C4C[C@@H](OC(=O)N(CCCCNC(C)CC(C)N)C(C)CC(C)N)CC[C@]4(C)[C@H]3CC[C@]12C.Cl.Cl.Cl (stereo partly drawn) [SA126, (3S,8S,9S,10R,13R,14S,17R)-10,13-dimethyl-17-((R)-6-methylheptan-2-yl)-2,3,4,7,8,9,10,11,12,13,14,15,16,17-tetradecahydro-1H-cyclopenta[a]phenanthren-3-yl (4-aminopentan-2-yl)(4-((4-aminopentan-2-yl)amino)butyl)carbamate trihydrochloride] | 18.2 ± 2.0 | 79.3 | 0.15 | 75 | 0.18 | 31706.7 ± 7386.3 | 99.4 | 99.7 |
| CC(C)CCC[C@@H](C)[C@H]1CC[C@H]2[C@@H]3CC=C4C[C@@H](OC(=O)N(CCCCNCCC(C)N)CCC(C)N)CC[C@]4(C)[C@H]3CC[C@]12C (stereo partly drawn) [SA76, (3S,8S,9S,10R,13R,14S,17R)-10,13-dimethyl-17-((R)-6-methylheptan-2-yl)-2,3,4,7,8,9,10,11,12,13,14,15,16,17-tetradecahydro-1H-cyclopenta[a]phenanthren-3-yl (3-aminobutyl)(4-((3-aminobutyl)amino)butyl)carbamate trihydrochloride] | 12.0 ± 1.1 | 83.9 | 0.11 | 75 | 0.20 | 38232.8 ± 4603.5 | 100 | 98.1 |
| CC(C)CCC[C@@H](C)[C@H]1CC[C@H]2[C@@H]3CC=C4C[C@@H](OC(=O)CCC(=O)N(CCCCCCCC(C)(C)N)CCC(C)(C)N)CC[C@]4(C)[C@H]3CC[C@]12C [SA164, (3S,8S,9S,10R,13R,14S,17R)-10,13-dimethyl-17-((R)-6-methylheptan-2-yl)-2,3,4,7,8,9,10,11,12,13,14,15,16,17-tetradecahydro-1H-cyclopenta[a]phenanthren-3-yl 4-((3-amino-3-methylbutyl)(8-amino-8-methylnonyl)amino)-4-oxobutanoate dihydrochloride] | 16.2 ± 0.7 | 72.5 | 0.14 | 73 | 0.14 | 17129.2 ± 2374.1 | 99.2 | 98.0 |
